Test results from BindingDB's records for doi:10.1074/jbc.M112.442335 (University of Notre Dame, 2013).

Biological target: T1, Coproheme decarboxylase (Staphylococcus aureus, UniProt Q2YS77)
T1 sequence (Q2YS77 whole entry): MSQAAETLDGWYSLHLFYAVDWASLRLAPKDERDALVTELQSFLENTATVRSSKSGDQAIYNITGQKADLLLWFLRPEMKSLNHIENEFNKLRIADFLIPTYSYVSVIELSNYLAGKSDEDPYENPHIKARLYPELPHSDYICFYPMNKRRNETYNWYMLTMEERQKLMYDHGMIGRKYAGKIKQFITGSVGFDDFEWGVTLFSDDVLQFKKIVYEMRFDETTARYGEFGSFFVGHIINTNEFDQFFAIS
Experiment: Fluorescence Titration Assay
Conditions: pH 6.8
Description: Titrations using fluorescence spectroscopy were carried out on a Jobin Yvon Horiba FluoroMax-3 fluorimeter in scanning mode. Apo-HemQ (5 μM) was diluted in 0.1 M potassium phosphate buffer, pH 6.8, and titrated with stocks of heme (1 mM in0.1 M NaOH) and protoporphyrin IX (1 mM in DMSO) each diluted to 500 μM at 25 °C.

Kd: 2210 nM
Structure (SMILES): C=Cc1c(C)c2cc3[nH]c(cc4nc(cc5nc(cc1[nH]2)C(C)=C5CCC(=O)O)C(CCC(=O)O)=C4C)c(C)c3C=C
